{"source": "paper PMC9606171", "about": "“Synthetic PPAR Agonist DTMB Alleviates Alzheimer’s Disease Pathology by Inhibition of Chronic Microglial Inflammation in 5xFAD Mice” (Neurotherapeutics, 2022)", "key": {"BV2": {"test_system": "BV2", "experiment": "Cell viability assay (MTT), BV2", "format": "cell-based, mouse", "conditions": "48 h", "experimental": "Cell viability was measured by chromogenic assay involving the biological reduction of 3-(4,5-dimethyl-thiazol-2-yl)-2,5-diphenyltetrazoliumbromide (MTT) to formazan in living cells. Briefly, cells were seeded in 96-well plates in a final volume of 100 μL. After 24 h, the culture media were replaced with fresh media containing DTMB compounds, and the cells were cultured for another 48 h. Next, MTT (5 mg/mL in PBS) was added to the culture medium. The cells were incubated for 1 h in the dark at 37 °C, and the supernatant was then removed from the well. Total MTT solvent (4 mM HCl and 0.1% Nonidet P-40, both in isopropanol) was added to dissolve the formazan crystal, and absorbance was measured at 570 nm using a microplate reader Infinite 200 Pro NanoQuant microplate reader (TECAN, Switzerland)."}, "primary microglia": {"test_system": "primary microglia", "experiment": "Western blot of NF-κB, NLRP3 and ASC in primary microglia", "format": "cell-based, mice", "conditions": "DTMB 25 µM, 24 h", "experimental": "Primary microglia culture was conducted as described in a previous study. Mice at postnatal day 3 mice were used for the preparation of primary microglia. Newborn mice pups were anesthetized in ice and then sacrificed. Isolated cortex and hippocampus were collected after removing the meninges. Brain tissues were dissociated by incubating in HBSS (Gibco, Gaithersburg, MD, USA) with trypsin (2.5%) for 15 min. Cell homogenates were then incubated in M-CSF (20 ng/mL, R&D Systems) supplemented with DMEM-F12 medium with 10% fetal bovine serum, 10% horse serum, 1% GlutaMAX (Gibco, MD, USA), and 1% penicillin/streptomycin (Welgene, Korea). After 10 days, microglia were purified through shaking at 260 rpm for 2 h.\nCells were lysed with lysis buffer containing 50 mM Tris (pH 7.4), 140 mM NaCl, 5 mM EDTA, and a protease inhibitor tablet, followed by sonication. Lysate protein concentrations were determined using Bradford reagents (AMERSCO, MA, USA). Proteins were resolved by sodium dodecyl sulfate (SDS) polyacrylamide gel electrophoresis, transferred to nitrocellulose membranes (Pall Corporation, New York, NY, USA), and incubated with blocking buffer (5% nonfat dry milk in TBS and 0.1% Tween 20) for 30 min. Western blot analyses were performed using primary antibodies against NF-κB, NLRP3, ASC, nicastrin, pen2 (Cell Signaling Technology, Danvers, MA, USA), Aph1 (Invitrogen), amyloid C-terminal fragment (Santa Cruz Biotechnology, Dallas, TX, USA), and GAPDH (Bethyl Laboratories, Mongomery, TX, USA). Secondary antibodies of rabbit (Promega), rat, and goat (Bethyl Laboratories) were used, and detection was performed with SUPEX ECL reagent (Neuronex, Korea) and an ImageQuant LAS-4000 (GE Healthcare, MA, USA), according to the manufacturer’s instructions. The integrated blot density was quantified through ImageJ."}, "5xFAD mice": {"test_system": "5xFAD mice", "experiment": "RT-qPCR of magnetically sorted adult microglia", "format": "in vivo", "conditions": "adult microglia sorted from 5xFAD mice", "experimental": "DTMB was synthesized from Daejung Chemicals (Korea) and was dissolved in dimethyl sulfoxide (Sigma Aldrich, St. Louis, MO, USA) for cell-based experiments. To evaluate the effects of DTMB on 5xFAD mice, DTMB (10 mg/kg) and vehicle (1% carboxymethylcellulose and 10% DMSO) were orally administrated to four groups (wild-type, wild-type + DTMB, 5xFAD, and 5xFAD + DTMB) with a 6 day per week for 3 months.\nTo isolate the adult microglia from DTMB- or vehicle-treated 5xFAD mice brain, magnetic-activated cell sorting (MACs) system was used. Whole brain tissue was dissociated to a single cell level using gentleMACs dissociation kit (Miltenyi Biotech, Bergisch Gladbach, Germany) according to manufacturer’s instruction. To separate the immune cell fraction, 47% percoll gradient was applied to single cell mixture and centrifuged at 2,000 rpm for 10 min. Adult microglia was isolated by LS column after incubating with anti-CD11b MicroBeads (Miltenyi Biotech). Separated adult microglia were used to analyze the expression of genes related to microglia activation and inflammation by performing RT-PCR. Sample sizes were 3 mice per group."}}, "data": [{"smiles": "COc1ccc(-c2cc(=O)oc3c(C)c(OC(=O)[C@H](Cc4c[nH]c5ccccc45)NC(=O)OC(C)(C)C)ccc23)cc1", "note": "[DTMB]", "values": [{"measurement": "cytotoxicity (MTT)", "setting": "BV2", "result": "no cytotoxicity"}, {"measurement": "protein level of ASC", "setting": "primary microglia", "result": "not changed"}, {"measurement": "protein level of NF-κB", "setting": "primary microglia", "result": "decreased"}, {"measurement": "protein level of NLRP3", "setting": "primary microglia", "result": "decreased"}, {"measurement": "levels of microglial activation markers (Iba-1, Trem2, and Cd68)", "setting": "5xFAD mice", "result": "markedly decreased"}, {"measurement": "levels of proinflammatory cytokines (Tnf-α, Il-6, and Il-1β)", "setting": "5xFAD mice", "result": "markedly decreased"}]}]}
